This is an account of results in ChEMBL document CHEMBL3124886, “Potent Hepatitis C Virus NS5A Inhibitors Containing a Benzidine Core” (ACS Med Chem Lett, 2014).

Data set [1] concerns Hepatitis C virus. The experiment in a line: Antiviral activity against Hepatitis C virus type 2a expressing JFH1 assessed as inhibition of infection in human Huh7.5.1 cells after 3 days by luciferase reporter gene assay. The class given is functional, organism-based, Hepacivirus hominis. The conditions noted are these: genotype 2a, Huh-7, 72 h.
Data set [2] is described as follows: Metabolic stability in rat plasma assessed as compound remaining at 2 uM after 0.5 hrs. Type of data set: ADME, cell-free. The settings on record: read-out: Stability.
A short description of data set [3]: Metabolic stability in rat plasma assessed as compound remaining at 2 uM after 1 hr. The class given is ADME, cell-free. The conditions noted are these: read-out: Stability.
Data set [4] deals with Voltage-gated inwardly rectifying potassium channel KCNH2 (Homo sapiens, UniProt Q12809). The experiment in a line: Binding affinity to human ERG by fluorescence polarization assay.
Another data set has as its target CYP2D6 (Homo sapiens, UniProt P10635). The experiment in a line: Inhibition of CYP2D6 (unknown origin) at 10 uM relative to control. The class given is ADME.
The nature of data set [5]: Selectivity index, ratio of cytotoxicity for human Huh7.5.1 cells to EC50 for Hepatitis C virus type 2a. The class given is toxicity, cell-based, Huh-7. The conditions noted are these: read-out: Selectivity Index.
Data set [6] can be described thus: Selectivity index, ratio of cytotoxicity for human Huh7.5.1 cells to EC50 for Hepatitis C virus genotype 1b. The conditions noted are these: read-out: Selectivity Index. The class given is toxicity, cell-based, Huh-7.
Data set [7] deals with Hepatitis C virus. The experiment in a line: Antiviral activity against Hepatitis C virus genotype 1b expressed in human Huh7.5.1 cells coexpressing NKR2AN after 3 days by luciferase reporter gene assay. Type of data set: functional, organism-based, Hepacivirus hominis. The settings on record: Huh-7, 72 h. For orientation: A reporter such as luciferase makes a cellular process visible.

The target of a further data set is T1, CYP1A2 (Homo sapiens, UniProt P05177).
T1 sequence (P05177 whole entry): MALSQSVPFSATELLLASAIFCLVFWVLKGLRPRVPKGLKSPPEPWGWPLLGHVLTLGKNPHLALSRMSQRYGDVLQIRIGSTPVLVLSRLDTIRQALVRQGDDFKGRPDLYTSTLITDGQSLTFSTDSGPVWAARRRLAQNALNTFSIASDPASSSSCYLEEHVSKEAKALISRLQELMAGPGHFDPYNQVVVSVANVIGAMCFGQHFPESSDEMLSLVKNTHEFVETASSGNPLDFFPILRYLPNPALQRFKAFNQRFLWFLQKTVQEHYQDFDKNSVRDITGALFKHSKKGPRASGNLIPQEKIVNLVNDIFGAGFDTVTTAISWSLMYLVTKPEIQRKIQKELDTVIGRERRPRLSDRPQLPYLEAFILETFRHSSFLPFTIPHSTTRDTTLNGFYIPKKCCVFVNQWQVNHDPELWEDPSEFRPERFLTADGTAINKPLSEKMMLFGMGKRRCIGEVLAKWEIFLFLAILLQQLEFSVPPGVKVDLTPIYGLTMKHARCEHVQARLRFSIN
The data set is described as follows: Inhibition of CYP1A2 (unknown origin) at 10 uM relative to control. Type of data set: ADME.

Data set [8] in a line: Cytotoxicity against human Huh7.5.1 cells. The class given is cell-based. The conditions noted are these: huh-7.
In a further data set the target is CYP3A4 (Homo sapiens, UniProt P08684). The data set is described as follows: Inhibition of CYP3A4 (unknown origin) at 10 uM relative to control. Type of data set: ADME.
Another data set concerns the target CYP2C9 (Homo sapiens, UniProt P11712). The data set is described as follows: Inhibition of CYP2C9 (unknown origin) at 10 uM relative to control. The class given is ADME.
Data set [9] in a line: Metabolic stability in rat plasma assessed as compound remaining at 2 uM after 4 hrs. Type of data set: ADME, cell-free. The settings on record: read-out: Stability.

Structures are written as SMILES.

CYP2D6, sequence (P10635 whole entry): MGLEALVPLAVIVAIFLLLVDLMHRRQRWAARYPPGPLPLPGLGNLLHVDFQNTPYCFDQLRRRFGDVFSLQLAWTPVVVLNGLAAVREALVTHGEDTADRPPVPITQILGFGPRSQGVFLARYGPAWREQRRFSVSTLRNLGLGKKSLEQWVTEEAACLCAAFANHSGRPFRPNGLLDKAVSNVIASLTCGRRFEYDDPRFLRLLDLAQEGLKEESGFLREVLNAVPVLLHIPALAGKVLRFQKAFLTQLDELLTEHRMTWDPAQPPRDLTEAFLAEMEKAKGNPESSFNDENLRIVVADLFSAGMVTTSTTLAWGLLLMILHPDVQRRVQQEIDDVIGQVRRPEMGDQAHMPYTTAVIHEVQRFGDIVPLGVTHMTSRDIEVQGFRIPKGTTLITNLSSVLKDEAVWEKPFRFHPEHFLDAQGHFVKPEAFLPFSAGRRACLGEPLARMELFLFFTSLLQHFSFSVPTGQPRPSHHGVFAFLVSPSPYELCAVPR
CYP3A4, sequence (P08684 whole entry): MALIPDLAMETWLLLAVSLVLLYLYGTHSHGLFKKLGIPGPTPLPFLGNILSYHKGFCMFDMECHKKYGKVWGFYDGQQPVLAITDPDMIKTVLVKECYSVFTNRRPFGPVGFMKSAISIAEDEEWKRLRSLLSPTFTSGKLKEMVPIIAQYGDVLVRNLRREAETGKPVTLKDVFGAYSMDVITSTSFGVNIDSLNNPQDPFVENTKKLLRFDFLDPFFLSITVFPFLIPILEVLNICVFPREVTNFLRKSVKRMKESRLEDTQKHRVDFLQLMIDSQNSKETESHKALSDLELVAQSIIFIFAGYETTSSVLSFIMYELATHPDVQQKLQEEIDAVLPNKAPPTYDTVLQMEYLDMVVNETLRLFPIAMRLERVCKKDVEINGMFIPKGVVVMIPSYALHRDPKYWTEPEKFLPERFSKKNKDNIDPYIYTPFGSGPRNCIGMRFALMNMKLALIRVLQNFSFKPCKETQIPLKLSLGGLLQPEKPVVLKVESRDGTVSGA
CYP2C9, sequence (P11712 whole entry): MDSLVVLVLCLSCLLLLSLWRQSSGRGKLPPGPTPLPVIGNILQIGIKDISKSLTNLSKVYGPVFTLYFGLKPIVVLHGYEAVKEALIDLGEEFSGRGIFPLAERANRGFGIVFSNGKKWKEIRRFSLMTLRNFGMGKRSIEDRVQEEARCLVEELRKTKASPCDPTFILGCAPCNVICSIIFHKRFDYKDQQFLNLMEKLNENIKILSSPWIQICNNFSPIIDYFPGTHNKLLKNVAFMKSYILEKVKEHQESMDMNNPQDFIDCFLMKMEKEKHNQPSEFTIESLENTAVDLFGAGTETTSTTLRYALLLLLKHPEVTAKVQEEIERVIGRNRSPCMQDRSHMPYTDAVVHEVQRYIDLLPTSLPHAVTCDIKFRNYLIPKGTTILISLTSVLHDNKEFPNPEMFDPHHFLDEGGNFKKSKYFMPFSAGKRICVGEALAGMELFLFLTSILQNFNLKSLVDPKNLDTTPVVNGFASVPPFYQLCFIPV
Voltage-gated inwardly rectifying potassium channel KCNH2, sequence (Q12809 whole entry): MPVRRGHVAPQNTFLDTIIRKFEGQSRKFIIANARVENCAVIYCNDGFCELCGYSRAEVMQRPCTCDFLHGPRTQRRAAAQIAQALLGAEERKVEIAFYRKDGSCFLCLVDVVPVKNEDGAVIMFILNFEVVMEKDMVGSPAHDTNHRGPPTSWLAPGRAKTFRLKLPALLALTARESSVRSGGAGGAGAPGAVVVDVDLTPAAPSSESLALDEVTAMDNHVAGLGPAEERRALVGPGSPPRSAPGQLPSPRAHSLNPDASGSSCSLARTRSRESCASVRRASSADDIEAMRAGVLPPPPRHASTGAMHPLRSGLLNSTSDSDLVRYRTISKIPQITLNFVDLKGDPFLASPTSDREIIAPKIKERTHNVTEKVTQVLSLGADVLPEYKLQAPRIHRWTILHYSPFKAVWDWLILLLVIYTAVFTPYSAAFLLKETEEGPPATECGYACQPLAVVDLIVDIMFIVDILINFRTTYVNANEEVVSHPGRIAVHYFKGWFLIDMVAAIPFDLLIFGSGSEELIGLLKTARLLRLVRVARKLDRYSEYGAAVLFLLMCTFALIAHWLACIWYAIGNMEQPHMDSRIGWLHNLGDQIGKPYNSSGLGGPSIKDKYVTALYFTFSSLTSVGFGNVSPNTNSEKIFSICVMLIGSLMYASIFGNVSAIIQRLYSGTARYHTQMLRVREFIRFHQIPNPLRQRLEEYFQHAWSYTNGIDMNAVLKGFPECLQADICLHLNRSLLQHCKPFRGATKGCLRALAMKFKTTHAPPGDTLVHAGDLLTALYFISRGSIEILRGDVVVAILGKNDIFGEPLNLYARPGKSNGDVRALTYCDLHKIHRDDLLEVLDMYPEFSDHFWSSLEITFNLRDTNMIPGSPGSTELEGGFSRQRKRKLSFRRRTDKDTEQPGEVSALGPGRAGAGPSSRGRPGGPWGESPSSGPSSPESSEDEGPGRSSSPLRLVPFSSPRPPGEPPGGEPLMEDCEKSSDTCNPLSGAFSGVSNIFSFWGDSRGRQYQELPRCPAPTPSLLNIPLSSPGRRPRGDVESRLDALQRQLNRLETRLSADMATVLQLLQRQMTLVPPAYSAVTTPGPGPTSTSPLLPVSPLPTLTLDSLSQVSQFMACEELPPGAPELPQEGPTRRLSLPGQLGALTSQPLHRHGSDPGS

The EC50 is the concentration giving half of the maximal effect. Consider `COC(=O)N[C@@H](C(=O)N1CCC[C@H]1C(=O)Nc1ccc(-c2ccc(NC(=O)[C@@H]3CCCN3C(=O)[C@H](NC(=O)OC)C(C)C)cc2)cc1)C(C)C`, for which the EC50 in the data set with Hepatitis C virus [1] is 15 nM.

As to `COC(=O)N[C@H](C(=O)N1CCC[C@H]1C(=O)Nc1ccc(-c2ccc(NC(=O)[C@@H]3CCCN3C(=O)[C@@H](NC(=O)OC)C(C)C)cc2)cc1)C(C)C`, in the data set with Hepatitis C virus [1], the EC50 was 120 nM.

For orientation: inhibition means the percentage by which the read-out fell short of the control. With `COC(=O)N[C@@H](C(=O)N1CCC[C@H]1C(=O)Nc1ccc(-c2ccc(NC(=O)[C@@H]3CCCN3C(=O)[C@H](NC(=O)OC)c3ccccc3)cc2)cc1)c1ccccc1`, in data set [2], the remaining at 0.5 h, 2 µM was over 99%. Also, the remaining at 1 h, 2 µM in data set [3] is over 99%. The EC50 in [4] amounted to 9800 nM; in the data set with Hepatitis C virus [7], 0.028 nM; in the data set on Hepatitis C virus [1] it was 0.26 nM. Besides, the inhibition at 10 µM worked out at 0% against CYP2D6, 18.1% on CYP1A2, 23.9% on CYP3A4 and 0% against CYP2C9. Moreover, the figures for the selectivity ratio in [5] and in data set [6] were over 96000 and over 893000, respectively. The compound also returned an Activity in [8] of over 25 µM. In data set [9], the remaining at 4 h, 2 µM was over 99%.

For the compound `CN(C)[C@@H](C(=O)N1CCC[C@H]1C(=O)Nc1ccc(-c2ccc(NC(=O)[C@@H]3CCCN3C(=O)[C@@H](c3ccccc3)N(C)C)cc2)cc1)c1ccccc1`, the selectivity ratio in data set [5] was over 11000; in data set [6], over 58000. Further, the results for the EC50 in the data set on Hepatitis C virus [7] and with Hepatitis C virus [1] were 0.43 nM and 2.3 nM, respectively. Moreover, the Activity in data set [8] was over 25 µM.

With `CCN(CC)[C@@H](C(=O)N1CCC[C@H]1C(=O)Nc1ccc(-c2ccc(NC(=O)[C@@H]3CCCN3C(=O)[C@@H](c3ccccc3)N(CC)CC)cc2)cc1)c1ccccc1`, the figures for the selectivity ratio in data set [5] and in data set [6] were over 11000 and over 93000, respectively. The EC50 in the data set on Hepatitis C virus [7] came out at 0.27 nM; in the data set on Hepatitis C virus [1], 2.2 nM. In addition, the Activity in data set [8] was over 25 µM.

`COC(=O)N[C@@H](C)C(=O)N1CCC[C@H]1C(=O)Nc1ccc(-c2ccc(NC(=O)[C@@H]3CCCN3C(=O)[C@H](C)NC(=O)OC)cc2)cc1`: in the data set on Hepatitis C virus [1], the EC50 is over 1000 nM.

Take `COC(=O)N[C@H](C(=O)N1CCC[C@H]1C(=O)Nc1ccc(-c2ccc(NC(=O)[C@@H]3CCCN3C(=O)[C@@H](NC(=O)OC)C(C)(C)C)cc2)cc1)C(C)(C)C`: the EC50 in the data set on Hepatitis C virus [1] was 24 nM.

Consider `O=C(Nc1ccc(-c2ccc(NC(=O)[C@@H]3CCCN3C(=O)[C@H]3CCCO3)cc2)cc1)[C@@H]1CCCN1C(=O)[C@H]1CCCO1`, for which the EC50 in the data set with Hepatitis C virus [1] amounted to 400 nM.

For the compound `CC(=O)N1CCN(c2ccc(OCC3COC(Cn4ccnc4)(c4ccc(Cl)cc4Cl)O3)cc2)CC1` (racemic) [KETOCONAZOLE], at 10 µM the inhibition on CYP3A4 was 95.3%.

`O=c1cc(-c2ccccc2)oc2c1ccc1ccccc12` [ALPHA-NAPHTHOFLAVONE] displayed an inhibition at 10 µM on CYP1A2 of 98.6%.

As to `C=C[C@H]1C[N@@]2CC[C@H]1C[C@@H]2[C@@H](O)c1ccnc2ccc(OC)cc12` [QUINIDINE], 10 µM produced 95.1% inhibition against CYP2D6.

Regarding `Nc1ccc(S(=O)(=O)Nc2ccnn2-c2ccccc2)cc1` [SULFAPHENAZOLE], the inhibition at 10 µM against CYP2C9 turned out to be 75.8%.
